Results on twelve molecules are retold here after US20260295053A1, “COMPOUNDS FOR DEGRADATION AND INHIBITION OF KRAS (G12D) PROTEIN” (Shenzhen Ionova Life Science Co., Ltd., priority 2023, published 2026).

SMILES strings stand for the structures.

The target in this experiment is T1, KRAS (G12D) (Homo sapiens, UniProt P01116, G12D).
T1 construct: in-cell western with KRAS G12D antibody after 24 h
T1 sequence (P01116 1-188 isoform P01116-2 G12D): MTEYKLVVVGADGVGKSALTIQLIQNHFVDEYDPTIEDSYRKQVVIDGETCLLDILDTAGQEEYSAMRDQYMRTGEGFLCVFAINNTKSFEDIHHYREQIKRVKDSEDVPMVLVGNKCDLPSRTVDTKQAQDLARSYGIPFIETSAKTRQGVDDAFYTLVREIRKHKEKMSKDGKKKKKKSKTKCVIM
Description: KRAS (G12D) cellular degradation assay in AsPC-1 cells. The experiment is classed as cell-based. To be noted: 24 hours, antibody fluorescence (Odyssey CLX), DC50 half-maximal degradation concentration. The method in brief:
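AsPC-1 cells: for degradation, grown to ~90% confluency, treated 24 h with 1:3 compound series ([…] to 1.5 nM), then fixed and immunostained for KRAS G12D and β-actin, read by infrared fluorescence, DC50 fitted. Proliferation: 3,500 cells/well, 6-day treatment, CellTiter Glo luminescence, IC50 fitted.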
For orientation: DC50 means the concentration at which degradation of the target reaches its halfway point. High values mean degradation only at high concentration, low ones degradation at low concentration. With `CCn1nccc1-c1ccc([C@H](CO)NC(=O)[C@@H]2C[C@@H](O)CN2C(=O)[C@H](C(C)C)n2cc(-c3ccc(COc4c(-c5c(C)c(F)cc6[nH]ncc56)c(C5CC5)cc5c(N(C)C[C@H]6CCCN6)nc(OC[C@H](C)OC)nc45)cc3)nn2)cc1` [Example 218, (2S,4R)-1-((2S)-2-(4-(4-(((6-cyclopropyl-7-(6-fluoro-5-methyl-1H-indazol-4-yl)-2-((S)-2-methoxypropoxy)-4-(methyl(((R)-pyrrolidin-2-yl)methyl)amino)quinazolin-8-yl)oxy)methyl)phenyl)-1H-1,2,3-triazol-1-yl)-3-methylbutanoyl)-N—((R)-1-(4-(1-ethyl-1H-pyrazol-5-yl)phenyl)-2-hydroxyethyl)-4-hydroxypyrrolidine-2-carboxamide], the DC50 is over 1000 nM.
`CO[C@@H](C)COc1nc(N2CCCNCC2)c2cc(C3CC3)c(-c3c(C)c(F)cc4[nH]ncc34)c(OCc3ccc(-c4cn([C@H](C(=O)N5C[C@H](O)C[C@H]5C(=O)N[C@@H](CO)c5ccc(-c6scnc6C)c6c5CC6)C(C)C)nn4)cc3)c2n1` [Example 219, (2S,4R)-1-((2S)-2-(4-(4-(((6-cyclopropyl-4-(1,4-diazepan-1-yl)-7-(6-fluoro-5-methyl-1H-indazol-4-yl)-2-((S)-2-methoxypropoxy)quinazolin-8-yl)oxy)methyl)phenyl)-1H-1,2,3-triazol-1-yl)-3-methylbutanoyl)-4-hydroxy-N—((R)-2-hydroxy-1-(5-(4-methylthiazol-5-yl)bicyclo[4.2.0]octa-1(6),2,4-trien-2-yl)ethyl)pyrrolidine-2-carboxamide] returned a DC50 of under 10 nM.
On to `CCn1nccc1-c1ccc([C@@H](NC(=O)[C@@H]2C[C@@H](O)CN2C(=O)[C@H](C(C)C)n2cc(-c3ccc(COc4c(-c5c(C)c(F)cc6[nH]ncc56)c(C5CC5)cc5c(N(C)[C@@H]6CCNC6)nc(O[C@H]6C[C@H](OC)C6)nc45)cc3)nn2)[C@H](C)O)cc1F` [Example 220, (2S,4R)-1-((2S)-2-(4-(4-(((6-cyclopropyl-7-(6-fluoro-5-methyl-1H-indazol-4-yl)-2-((1r,3R)-3-methoxycyclobutoxy)-4-(methyl((R)-pyrrolidin-3-yl)amino)quinazolin-8-yl)oxy)methyl)phenyl)-1H-1,2,3-triazol-1-yl)-3-methylbutanoyl)-N-((1R,2S)-1-(4-(1-ethyl-1H-pyrazol-5-yl)-3-fluorophenyl)-2-hydroxypropyl)-4-hydroxypyrrolidine-2-carboxamide], for which the DC50 is under 10 nM.
The same measure for `CO[C@@H](C)COc1nc(N2CCCNCC2)c2cc(C3CC3)c(-c3c(C)c(F)cc4[nH]ncc34)c(OCc3ccc(-c4cn([C@H](C(=O)N5C[C@H](O)C[C@H]5C(=O)N[C@H](CO)c5ccc(-c6scnc6C)c6c5CC6)C(C)C)nn4)cc3)c2n1` [Example 221, (2S,4R)-1-((2S)-2-(4-(4-(((6-cyclopropyl-4-(1,4-diazepan-1-yl)-7-(6-fluoro-5-methyl-1H-indazol-4-yl)-2-((S)-2-methoxypropoxy)quinazolin-8-yl)oxy)methyl)phenyl)-1H-1,2,3-triazol-1-yl)-3-methylbutanoyl)-4-hydroxy-N—((S)-2-hydroxy-1-(5-(4-methylthiazol-5-yl)bicyclo[4.2.0]octa-1(6),2,4-trien-2-yl)ethyl)pyrrolidine-2-carboxamide]: 100 to 1000 nM; for `CCn1nccc1-c1ccc([C@H](CO)NC(=O)[C@@H]2C[C@@H](O)CN2C(=O)[C@H](C(C)C)n2cc(-c3ccc(COc4c(-c5c(C)c(F)cc6[nH]ncc56)c(C5CC5)cc5c(N6C[C@H]7CN[C@H](C7)C6)nc(OC[C@H](C)OC)nc45)cc3)nn2)cc1` [Example 222, (2S,4R)-1-((2S)-2-(4-(4-(((4-((1R,5R)-3,6-diazabicyclo[3.2.1]octan-3-yl)-6-cyclopropyl-7-(6-fluoro-5-methyl-1H-indazol-4-yl)-2-((S)-2-methoxypropoxy)quinazolin-8-yl)oxy)methyl)phenyl)-1H-1,2,3-triazol-1-yl)-3-methylbutanoyl)-N—((R)-1-(4-(1-ethyl-1H-pyrazol-5-yl)phenyl)-2-hydroxyethyl)-4-hydroxypyrrolidine-2-carboxamide]: 10 to 100 nM; for `CO[C@@H](C)COc1nc(N2C[C@H]3CN[C@H](C3)C2)c2cc(C3CC3)c(-c3c(C)c(F)cc4[nH]ncc34)c(OCc3ccc(-c4cn([C@H](C(=O)N5C[C@H](O)C[C@H]5C(=O)N[C@@H](CO)c5ccc(-c6scnc6C)cc5)C(C)C)nn4)cc3)c2n1` [Example 223, (2S,4R)-1-((2S)-2-(4-(4-(((4-((1R,5R)-3,6-diazabicyclo[3.2.1]octan-3-yl)-6-cyclopropyl-7-(6-fluoro-5-methyl-1H-indazol-4-yl)-2-((S)-2-methoxypropoxy)quinazolin-8-yl)oxy)methyl)phenyl)-1H-1,2,3-triazol-1-yl)-3-methylbutanoyl)-4-hydroxy-N—((R)-2-hydroxy-1-(4-(4-methylthiazol-5-yl)phenyl)ethyl)pyrrolidine-2-carboxamide]: 10 to 100 nM.
To `CCn1nccc1-c1ccc([C@H](CO)NC(=O)[C@@H]2C[C@@H](O)CN2C(=O)[C@H](C(C)C)n2cc(-c3ccc(COc4c(-c5c(C)c(F)cc6[nH]ncc56)c(C5CC5)cc5c(N6CCCNCC6)nc(OC[C@H](C)OC)nc45)cc3)nn2)c2c1CC2` [Example 224, (2S,4R)-1-((2S)-2-(4-(4-(((6-cyclopropyl-4-(1,4-diazepan-1-yl)-7-(6-fluoro-5-methyl-1H-indazol-4-yl)-2-((S)-2-methoxypropoxy)quinazolin-8-yl)oxy)methyl)phenyl)-1H-1,2,3-triazol-1-yl)-3-methylbutanoyl)-N—((R)-1-(5-(1-ethyl-1H-pyrazol-5-yl)bicyclo[4.2.0]octa-1(6),2,4-trien-2-yl)-2-hydroxyethyl)-4-hydroxypyrrolidine-2-carboxamide] belongs under 10 nM; to `CCn1nccc1-c1ccc([C@H](CO)NC(=O)[C@@H]2C[C@@H](O)CN2C(=O)[C@H](C(C)C)n2cc(-c3ccc(COc4c(-c5c(C)c(F)cc6[nH]ncc56)c(C5CC5)cc5c(N6CCC(N)CC6)nc(OC[C@H](C)OC)nc45)cc3)nn2)cc1` [Example 225, (2S,4R)-1-((2S)-2-(4-(4-(((4-(4-aminopiperidin-1-yl)-6-cyclopropyl-7-(6-fluoro-5-methyl-1H-indazol-4-yl)-2-((S)-2-methoxypropoxy)quinazolin-8-yl)oxy)methyl)phenyl)-1H-1,2,3-triazol-1-yl)-3-methylbutanoyl)-N—((R)-1-(4-(1-ethyl-1H-pyrazol-5-yl)phenyl)-2-hydroxyethyl)-4-hydroxypyrrolidine-2-carboxamide], under 10 nM.
`CCn1nccc1-c1ccc([C@H](CO)NC(=O)[C@@H]2C[C@@H](O)CN2C(=O)[C@H](C(C)C)n2cc(-c3ccc(COc4c(-c5c(C)c(F)cc6[nH]ncc56)c(C5CC5)cc5c(N6CCC(NC(C)=O)CC6)nc(OC[C@H](C)OC)nc45)cc3)nn2)cc1` [Example 226, (2S,4R)-1-((2S)-2-(4-(4-(((4-(4-acetamidopiperidin-1-yl)-6-cyclopropyl-7-(6-fluoro-5-methyl-1H-indazol-4-yl)-2-((S)-2-methoxypropoxy)quinazolin-8-yl)oxy)methyl)phenyl)-1H-1,2,3-triazol-1-yl)-3-methylbutanoyl)-N—((R)-1-(4-(1-ethyl-1H-pyrazol-5-yl)phenyl)-2-hydroxyethyl)-4-hydroxypyrrolidine-2-carboxamide]: the half-maximal degradation concentration (DC50) lay within 10 to 100 nM.
To `CCn1nccc1-c1ccc([C@H](CO)NC(=O)[C@@H]2C[C@@H](O)CN2C(=O)[C@H](C(C)C)n2cc(-c3ccc(COc4c(-c5c(C)c(F)cc6[nH]ncc56)c(C5CC5)cc5c(N6CC7CNCC7C6)nc(OC[C@H](C)OC)nc45)cc3)nn2)cc1` (stereo partly drawn) [Example 227, (2S,4R)-1-((2S)-2-(4-(4-(((6-cyclopropyl-7-(6-fluoro-5-methyl-1H-indazol-4-yl)-4-(hexahydropyrrolo[3,4-c]pyrrol-2(1H)-yl)-2-((S)-2-methoxypropoxy)quinazolin-8-yl)oxy)methyl)phenyl)-1H-1,2,3-triazol-1-yl)-3-methylbutanoyl)-N—((R)-1-(4-(1-ethyl-1H-pyrazol-5-yl)phenyl)-2-hydroxyethyl)-4-hydroxypyrrolidine-2-carboxamide] belongs 10 to 100 nM; to `CCn1nccc1-c1ccc([C@H](CO)NC(=O)[C@@H]2C[C@@H](O)CN2C(=O)[C@H](C(C)C)n2cc(-c3ccc(COc4c(-c5c(C)c(F)cc6[nH]ncc56)c(C5CC5)cc5c(N(C)C[C@@H]6CCCN6)nc(OC[C@H](C)OC)nc45)cc3)nn2)cc1` [Example 228, (2S,4R)-1-((2S)-2-(4-(4-(((6-cyclopropyl-7-(6-fluoro-5-methyl-1H-indazol-4-yl)-2-((S)-2-methoxypropoxy)-4-(methyl(((S)-pyrrolidin-2-yl)methyl)amino)quinazolin-8-yl)oxy)methyl)phenyl)-1H-1,2,3-triazol-1-yl)-3-methylbutanoyl)-N—((R)-1-(4-(1-ethyl-1H-pyrazol-5-yl)phenyl)-2-hydroxyethyl)-4-hydroxypyrrolidine-2-carboxamide], under 10 nM; to `CCn1nccc1-c1ccc([C@H](CO)NC(=O)[C@@H]2C[C@@H](O)CN2C(=O)[C@H](C(C)C)n2cc(-c3ccc(COc4c(-c5c(C)c(F)cc6[nH]ncc56)c(C5CC5)cc5c(N6C[C@@H]7CN[C@@H](C7)C6)nc(OC[C@H](C)OC)nc45)cc3)nn2)cc1` [Example 229, (2S,4R)-1-((2S)-2-(4-(4-(((4-((1S,5S)-3,6-diazabicyclo[3.2.1]octan-3-yl)-6-cyclopropyl-7-(6-fluoro-5-methyl-1H-indazol-4-yl)-2-((S)-2-methoxypropoxy)quinazolin-8-yl)oxy)methyl)phenyl)-1H-1,2,3-triazol-1-yl)-3-methylbutanoyl)-N—((R)-1-(4-(1-ethyl-1H-pyrazol-5-yl)phenyl)-2-hydroxyethyl)-4-hydroxypyrrolidine-2-carboxamide], 10 to 100 nM.
